In patent US7112573B2, “Isoflavone and triterpene glycosides from soybeans” (Iowa Research, The University Foundation, priority 2002, dated 2006):
Converted amounts (≈) assume the structure as drawn.

How the values were obtained:
Assay type in all cases: cell-based, human
Details in all cases: 6 days incubation, 50% reduction of absorbance vs untreated controls, mean of 2 observations
[1] = tested on: Hs 746 T stomach carcinoma cell line; assay: MTT cytotoxicity assay, Hs 746 T
Text: (§1) Here, as described herein below, the inventors used human stomach carcinoma (Hs 740.T, Hs 756 T), breast adenocarcinoma (Hs 578 T, Hs 742.T) and prostate carcinoma (DU 145, and LNCaP-FGC) cell lines to evaluate the cytotoxic activities of extracts and the compounds provided the invention. The 50% effective doses (ED50) obtained by measuring growth inhibition with MTT (3-[4,5-dimethlthiazol-2-yl]-2,5-diphenyltetrazolium bromide]) (Goren et al, 1996; Rubinstein et al, 1990) are shown in Table 3.
(§2) The following materials and reagents were used for cell culture and cytotoxic assays. Human stomach carcinoma (Hs 740.T, Hs 756 T), breast adenocarcinoma (Hs 578 T, Hs 742.T) and prostate carcinoma (DU 145, LNCaP-FGC) cell lines were purchased from the American Type Culture Collection ATCC. Dulbecco's modified Eagle medium (DMEM) (Gibco, Grand Island, N.Y.), Eagle Minimum Essential Medium (EMEM) and Rosewell Park Memorial Institute (RPMI) 1640 medium were from Nissui Pharm. Co., Ltd., Tokyo, Japan. Flat-bottom plates, 96-well were from Iwaki Glass Co., LTD (Funabashi-Chiba-Ken, Japan). The 3-[4,5-dimethlthiazol-2-yl]-2,5-diphenyltetrazolium bromide (MTT) colorimetric assay (Goren et al., 1996; Rubinstein et al., 1990) was from Sigma (St. Louis, Mo., USA), and 10% fetal bovine serum FBS was from Gibco BRL (Rockville, Md., USA). All other chemicals used were of analytical reagent grade.
(§3) Cell lines Hs 740.T, Hs 746 T, Hs 578 T and Hs 742.T were cultured in Dulbecco's Modified Eagle's Medium (DMEM) containing 10% heat-inactivated Fetal Bovine Serum (FBS). The DU 145 cells were cultured in Eagle Minimum Essential Medium (EMEM) containing Earle's salts and supplemented with amino acids and 10% heat-inactivated FBS. The LNCaP-FGC cell lines were maintained in Rosewell Park Memorial Institute (RPMI) 1640 medium containing 10% heat-inactivated FBS. All cell lines were cultivated in an incubator at 37° C. in humidified air containing 5% CO2. For routine cytotoxicity assays, all six cell lines were adapted to one single medium RPMI 1640 medium supplemented with 10% FBS, 2 mM L-glutamine, penicillin (100 units/mL) and streptomycin (100 μg/mL). For the microassay, the growth medium was supplemented with 10 mM HEPES (1-(2-hydroxyethyl) piperazine-4-ethanesulfonic acid) buffer (pH 7.3) and incubated at 37° C. in a CO2 incubator. These methods are similar to those used by Goren et al., (1996) AND Rubinstein et al., (1990).
(§4) Cellular viability in the presence and absence of experimental agents was determined using the standard MTT (3-[4,5-dimethlthiazol-2-yl]-2,5-diphenyltetrazolium bromide) calorimetric assay (Goren et al., 1996; Rubinstein et al., 1990). The assay is based on reduction of MTT by the mitochondrial dehydrogenase of viable cells to give a blue formazan product that can be measured spectrophotometrically (Goren et al., 1996; Rubinstein et al., 1990). In brief, exponentially growing cells were harvested, and 200 μL cells suspension were seeded in 96-well microplates and preincubated for 24 h at 37° C. under 5% CO2 to allow cell attachment. After attachment, 10 μL of an EtOH: H2O (1:1 solution) containing varying concentrations of test samples were added to wells in duplicate, and 10 μL EtOH:H2O (1:1) was added into wells as a control. Sample containing microplates were further incubated for 6 days. Cell survival was evaluated by adding 10 μL of 5 mg mL of MTT in 0.1 mM, pH 7.4 phosphate buffered saline to each well, and reincubating plates in 5% CO2/air for 4 h at 37° C. Plates were then centrifuged at 1,500×g for 5 min to precipitate cells and MTT formazan. An aliquot of 100 μL of the supernatant was removed, and DMSO (100 μL) was added to dissolve the precipitated, reduced MTT. The plate was mixed on a microshaker for 10 min, and the absorbance was determined at 550 nm with a multiwell scanning spectrophotometer (Dynex MR 5000, Chantilly Va.). […]

[2] = tested on: DU 145 prostate carcinoma cell line; assay: MTT cytotoxicity assay, DU 145
Text: as §1, §2, §3, §4

[3] = tested on: Hs 578 T breast adenocarcinoma cell line; assay: MTT cytotoxicity assay, Hs 578 T
Text: as §1, §2, §3, §4

[4] = tested on: LNCAp-FGC prostate carcinoma cell line; assay: MTT cytotoxicity assay, LNCaP-FGC
Text: as §1, §2, §3, §4

[5] = tested on: Hs 740.T stomach carcinoma cell line; assay: MTT cytotoxicity assay, Hs 740.T
Text: as §1, §2, §3, §4

[6] = tested on: HS 742.T breast adenocarcinoma cell line; assay: MTT cytotoxicity assay, HS 742.T
Text: as §1, §2, §3, §4

| SMILES | ED50 Stomach Carcinoma Hs 746 T [1] | ED50 Prostate Carcinoma DU 145 [2] | ED50 Breast Adenocarcinoma Hs 578 T [3] | ED50 Prostate Carcinoma LNCAp-FGC [4] | ED50 Stomach Carcinoma Hs 740.T [5] | ED50 Breast Adenocarcinoma HS 742.T [6] |
| --- | --- | --- | --- | --- | --- | --- |
| O=C1c2ccc(O[C@@H]3O[C@H](CO)[C@@H](O)[C@H](O)[C@H]3O)cc2OCC1c1ccc(O)cc1 (stereo partly drawn) [Compound 1, 7-O-β-D-glucopyranosyl-4′-hydroxy-isoflavanone] | 14.92 µg/mL (≈ 35.7 µM) | 9.16 µg/mL (≈ 21.9 µM) | 28.23 µg/mL (≈ 67.5 µM) | 32.45 µg/mL (≈ 77.6 µM) | 17.37 µg/mL (≈ 41.5 µM) | 33.57 µg/mL (≈ 80.2 µM) |
| O=C1c2c(O)cc(O[C@@H]3O[C@H](CO)[C@@H](O)[C@H](O)[C@H]3O)cc2OCC1c1ccc(O)cc1 (stereo partly drawn) [Compound 2, 7-O-β-D-glucopyranosyl-5,7,4′-trihydroxyisoflavanone] | 12.24 µg/mL (≈ 28.2 µM) | 10.25 µg/mL (≈ 23.6 µM) | 15.36 µg/mL (≈ 35.4 µM) | 41.58 µg/mL (≈ 95.7 µM) | 15.12 µg/mL (≈ 34.8 µM) | 30.80 µg/mL (≈ 70.9 µM) |
| COc1ccc(-c2coc3cc(OC4OC(COC(C)=O)[C@@H](O)C(O)C4OC(C)=O)ccc3c2=O)cc1 (stereo partly drawn) [Compound 3, formononetin-7-O-(2″,6″-O-diacetyl) glucopyranoside] | 8.89 µg/mL (≈ 17.3 µM) | 4.18 µg/mL (≈ 8.12 µM) | 5.44 µg/mL (≈ 10.6 µM) | 22.12 µg/mL (≈ 43 µM) | 7.61 µg/mL (≈ 14.8 µM) | 25.53 µg/mL (≈ 49.6 µM) |
| O=c1c(-c2ccc(O)cc2)coc2cc(O)cc(O)c12 [Compound 5, genistein, reference compound] | 5.82 µg/mL (≈ 21.5 µM) | 2.39 µg/mL (≈ 8.84 µM) | 3.50 µg/mL (≈ 13 µM) | 25.45 µg/mL (≈ 94.2 µM) | 4.38 µg/mL (≈ 16.2 µM) | 14.88 µg/mL (≈ 55.1 µM) |
| C[C@@H]1O[C@@H](O[C@H]2[C@H](O[C@@H]3CC(C)(C)C[C@H]4C5=CC[C@@H]6[C@@]7(C)CC[C@H](O[C@@H]8O[C@H](C(=O)O)[C@@H](O)[C@H](O)[C@H]8O[C@@H]8O[C@H](CO)[C@H](O)[C@H](O)[C@H]8O[C@@H]8O[C@@H](C)[C@H](O)[C@@H](O)[C@H]8O)[C@@](C)(CO)[C@@H]7CC[C@@]6(C)[C@]5(C)CC[C@@]34C)OC[C@H](O)[C@@H]2O)[C@H](O)[C@H](O)[C@H]1O [Compound 13] | 2.47 µg/mL (≈ 2.02 µM) | 3.12 µg/mL (≈ 2.55 µM) | 2.39 µg/mL (≈ 1.96 µM) | 27.50 µg/mL (≈ 22.5 µM) | 3.53 µg/mL (≈ 2.89 µM) | 17.51 µg/mL (≈ 14.3 µM) |
| C[C@@H]1O[C@@H](O[C@H]2[C@H](O[C@H]3[C@H](O[C@H]4CC[C@@]5(C)[C@@H](CC[C@]6(C)[C@@H]5CC=C5[C@@H]7CC(C)(C)C[C@@H](O[C@@H]8O[C@H](CO)[C@@H](O)[C@H](O)[C@H]8O[C@@H]8O[C@@H](C)[C@H](O)[C@@H](O)[C@H]8O)[C@]7(C)CC[C@]56C)[C@]4(C)CO)O[C@H](C(=O)O)[C@@H](O)[C@@H]3O)O[C@H](CO)[C@H](O)[C@@H]2O)[C@H](O)[C@H](O)[C@H]1O [Compound 14] | 3.94 µg/mL (≈ 3.15 µM) | 3.25 µg/mL (≈ 2.6 µM) | 2.12 µg/mL (≈ 1.69 µM) | 24.10 µg/mL (≈ 19.3 µM) | 4.10 µg/mL (≈ 3.28 µM) | 14.63 µg/mL (≈ 11.7 µM) |
| CC1(C)C[C@H]2C3=CC[C@@H]4[C@@]5(C)CC[C@H](O[C@@H]6O[C@H](C(=O)O)[C@@H](O)[C@H](O)[C@H]6O[C@@H]6O[C@H](CO)[C@H](O)[C@H](O)[C@H]6O)[C@](C)(CO)[C@@H]5CC[C@@]4(C)[C@]3(C)CC[C@@]2(C)[C@H](O[C@@H]2OC[C@H](O)[C@H](O[C@@H]3O[C@H](CO)[C@@H](O)[C@H](O)[C@H]3O)[C@H]2O)[C@@H]1O [Compound 15, 3-O-{[β-D-galactopyranosyl-(1→2)-β-D-glucuronopyranosyl]}-22-O-[β-D-glucopyranosyl(1→3)-α-L-arabinopyranosyl]soyasapogenol A, reference compound] | 3.22 µg/mL (≈ 2.91 µM) | 2.11 µg/mL (≈ 1.91 µM) | 4.84 µg/mL (≈ 4.37 µM) | 30.70 µg/mL (≈ 27.7 µM) | 3.15 µg/mL (≈ 2.84 µM) | 30.10 µg/mL (≈ 27.2 µM) |
| CC1(C)C[C@@H](O)[C@]2(C)CC[C@]3(C)C(=CC[C@@H]4[C@@]5(C)CC[C@H](O[C@@H]6O[C@H](C(=O)O)[C@@H](O)[C@H](O)[C@H]6O[C@@H]6O[C@H](CO)[C@H](O)[C@H](O)[C@H]6O[C@@H]6O[C@H](CO)[C@@H](O)[C@H](O)[C@H]6O)[C@@](C)(CO)[C@@H]5CC[C@]43C)[C@@H]2C1 [Compound 16, 3-O-[β-D-glucopyranosyl-(1→2)-β-D-galactopyranosyl(1→2)-β-D-glucuronopyranosyl] soyasapogenol B, reference compound] | 7.36 µg/mL (≈ 7.67 µM) | 5.75 µg/mL (≈ 5.99 µM) | 9.87 µg/mL (≈ 10.3 µM) | 40.68 µg/mL (≈ 42.4 µM) | 8.97 µg/mL (≈ 9.35 µM) | 31.55 µg/mL (≈ 32.9 µM) |
| CC1(C)C[C@@H](O)[C@]2(C)CC[C@]3(C)C(=CC[C@@H]4[C@@]5(C)CC[C@H](O[C@@H]6O[C@H](C(=O)O)[C@@H](O)[C@H](O)[C@H]6O)[C@@](C)(CO)[C@@H]5CC[C@]43C)[C@@H]2C1 [Compound 17, 3-O-[β-D-glucuronopyranosyl]soyasapogenol B, reference compound] | 9.59 µg/mL (≈ 15.1 µM) | 9.13 µg/mL (≈ 14.4 µM) | 8.77 µg/mL (≈ 13.8 µM) | 37.29 µg/mL (≈ 58.7 µM) | 9.61 µg/mL (≈ 15.1 µM) | 28.68 µg/mL (≈ 45.2 µM) |
